Assay results published in patent US20240325396A1, “METHODS FOR TREATING CANCER” (Allarity Therapeutics, Inc., priority 2023, published 2024).
Read-outs that look alike come from different tables or passages of the source.

Experiments:
[1] = tested on: BRCA1 mutant MDA-MB-436 human breast cancer subcutaneous xenograft; assay: MDA-MB-436 subcutaneous xenograft model, anti-tumor activity; format: in vivo; conditions: 30 and 100 mg/kg
[2] = tested on: human acute myeloid leukemia (AML) MV-4-11-luc2/AcGFP; assay: AML MV-4-11-luc2/AcGFP survival model; format: in vivo
Advanced Solid Tumors = assay: Phase 1 study E7449-E044-101, tumor response (RECIST 1.1); format: in vivo, human
Experimental: The overall objective response rate (ORR; CR+PR) was 4.9% (n=2) with 1 subject each in the 600 mg (MTD) and 800 mg dose groups with a BOR of PR.

[3] = Phase 1 study, pharmacokinetics in plasma and urine; format: in vivo, human
Text: Food intake vs fasting comparisons were made after administration of the Cycle 1 Day 7 dose (FIG. 2A) and after the Cycle 1 Day 15 dose (FIG. 2B).

[4] = tested on: PARP activity (PAR levels); assay: Phase 1 study, PARP inhibition by change in PAR levels; format: in vivo, human
[5] = Safety: Phase 1 study with preliminary Phase 2 metastatic breast cancer data; format: in vivo
Experimental: Phototoxicity was in the Danish study primarily seen in 2 subjects treated during the hot summer period in 2018.
Anemia was registered in only few subjects at doses of 400 mg and above 3/42 (7%) (all grade 2) and 4/42 had increased liver enzymes (grade 2: 1/42 (2.6%) and grade 3: 3/42 (7%)).
Gastrointestinal side-effects were registered in some subjects: nausea 14/42 (33%), vomiting 7/42 (16%) and diarrhea 13/42 ([…]) all grade 1-2 apart from two cases of grade 3 diarrhea.

breast cancer = assay: Phase 2 breast cancer study, response; format: in vivo, human; conditions: twelve subjects evaluable for response
Text: A breast cancer study was initiated in June 2018 and discontinued for futility after enrollment of 16 subjects. Twelve subjects were evaluable for response: Nine had PD and three subjects had SD.

advanced ovarian cancer = assay: Phase 2 advanced ovarian cancer study QD vs BID, tumor response (RECIST 1.1), PFS; format: in vivo, human
Text: Patient population: Histologically or cytologically documented epithelial ovarian carcinoma including high-grade serous, endometrioid, clear cell, carcinosarcoma, undifferentiated, and mixed histological subtypes (independent of BRCA1 and homologous recombination (HR) deficiency (HRD) status) and with 2 or more previous chemotherapies/antibody therapies including treatment with other PARPi for advanced, refractory, or recurrent ovarian cancer.
The Interim Analysis Population (IAP) and safety population consisted of 28 patients (10 BID and 18 QD). Five patients received a first dose but dropped out before any tumor evaluation.
FIG. 4A and FIG. 4B show the best change in tumor diameter from baseline in the IAP QD population (FIG. 4A) and the IAP BID population (FIG. 4B). The mean of best change in tumor diameter from baseline in the QD population (FIG. 4A) was 4% tumor growth. The CR in the BID pollution (FIG. 4B) was unconfirmed, and consisted of target lymph node lesions that all turned normal. This CR patient also had CA125 CR unconfirmed status. The mean of best change in tumor diameter from baseline in the BID population (FIG. 4B) was 29% tumor reduction. The median PFS was not reached in the BID population, and was 50 days (1.6 months) in the QD population.

CA125 = assay: Phase 2 advanced ovarian cancer study, CA125 test response (GCIG); format: in vivo, human
Experimental: Only patients with a baseline of CA125 twice the upper normal limit of 70 unit/ml who received at least one dose were included in IAP. Only patients who had completed 2 cycles were determined to be evaluable for CA125 response. Two QD patients and four BID patients were below 70 units/ml. The CA125 test was confirmed with a second measurement that was lower than or within 10% of the previous measurement.

[6] = Phase 2 advanced ovarian cancer study, adverse events and dose modifications; format: in vivo, human
[7] = Myelotoxicity, ovarian cancer patients pooled with 14 metastatic breast cancer patients; format: in vivo, human; conditions: BID + QD (N = 42)
Experimental: Because myelotoxicity appeared to be a rare event for 2×-121, 14 patients with metastatic breast cancer that received 600 mg QD in a phase II trial were included in Table 10.

[8] = published Phase I trial (Plummer, Br J Cancer 2020); cited from earlier work
P-gp = assay: in vitro; conditions: mouse
[9] = tested on: SR human B cell lymphoma cell line; assay: Cell proliferation assay, SR; conditions: 192 h, read-out: IC50, inhibition of cell proliferation
[10] = tested on: BRCA1 mutant human triple negative breast cancer cell line MDA-MB-436; assay: Cell proliferation assay, MDA-MB-436; conditions: MDA-MB-436, 192 h, read-out: IC50, inhibition of cell proliferation
[11] = tested on: human acute myeloid leukemia MV-4-11-luc2/AcGFP cell line; assay: Cell proliferation assay, MV-4-11-luc2/AcGFP; conditions: 144 h, read-out: IC50, inhibition of cell proliferation
[12] = cited from earlier work

O=c1[nH]nc2c3c(cccc13)N=C(CN1Cc3ccccc3C1)N2 [stenoparib, 8-(isoindolin-2-ylmethyl)-2,9-dihydro-3H-pyridazino [3,4,5-de] quinazolin-3-one]
tolerability, body weight loss ([1]; 28 days): no significant body weight loss
tumor growth inhibition ([1]; consecutive 28-day administration): statistically significant tumor growth inhibition
disease burden as measured by luciferase signal ([2]; 100 mg/kg): Reduced disease burden
survival benefit ([2]; 100 mg/kg for 28 days): statistically significant survival benefit
tolerability, body weight loss ([2]; 10, 30 or 100 mg/kg): well-tolerated without any significant body weight loss
disease burden by luciferase signal and survival benefit ([2]; 10 and 30 mg/kg): No statistically significant reduction in disease burden by luciferase signal or survival benefit
BOR of stable disease (Advanced Solid Tumors; 13 subjects): 31.7%
subjects with best overall response (BOR) of CR (Advanced Solid Tumors; 35 subjects assessed, investigator assessment, once daily dosing): None
overall objective response rate (ORR; CR+PR) (Advanced Solid Tumors; n=2, one PR each at 600 mg and 800 mg): 4.9%
increase of AUC by food ([3]; 600 mg dose, plasma): 10%
reduction of Cmax by food ([3]; 600 mg dose, plasma): 60%
accumulation based on AUC ([3]; Day -2 vs Day 15 administration): minimal accumulation
Tmax ([3]; human, plasma, across subjects and dose groups, oral): 0.5 to 4 h
administered dose recovered in urine ([3]; in vivo): less than 1.5%
half-life ([3]; plasma, human subjects, oral, read-out: elimination half-life (converted)): ~8 h
dose proportionality of absorption in plasma ([3]; single or multiple oral doses between 50 mg and 800 mg): proportional absorption
inhibition in PAR levels from baseline ([4]; 600 mg (MTD), food effect cohort, 2 to 4 hours post-dose): up to 90%
decrease in PAR levels ([4]; 24 hours post-dose): ≥ 70%
MTD ([5]; administered orally once daily, phase I study): 600 mg
diarrhea ([5]; human, in vivo): 25%
nausea ([5]; human, in vivo): 33%
vomiting ([5]; human, in vivo): 16%
DLT ([5]; in vivo): limited to fatigue and one case of anaphylactic reaction
cases of grade 3 diarrhea ([5]; in vivo): two
hematotoxicity or hepatotoxicity ([5]; in vivo): no significant hematotoxicity or hepatotoxicity was observed
subjects with PD (breast cancer): Nine
subjects with SD (breast cancer): three
Tumor response CR, patients n (%) (advanced ovarian cancer; 600 mg QD, N = 18 IAP): 0 (0%)
Tumor response PD, patients n (%) (advanced ovarian cancer; 600 mg QD, N = 18 IAP): 9 (50%)
Tumor response PR, patients n (%) (advanced ovarian cancer; 600 mg QD, N = 18 IAP): 0 (0%)
Tumor response SD > 16w, patients n (%) (advanced ovarian cancer; 600 mg QD, N = 18 IAP): 1 (6%)
Tumor response SD, patients n (%) (advanced ovarian cancer; 600 mg QD, N = 18 IAP): 3 (17%)
Tumor response CR, patients n (%) (advanced ovarian cancer; BID 200 mg morning + 400 mg evening, N = 10 IAP, unconfirmed): 1 (10%) unconfirmed
mean of best change in tumor diameter from baseline, tumor reduction (advanced ovarian cancer; BID population): 29%
median PFS (advanced ovarian cancer; BID population): not reached
Tumor response PD, patients n (%) (advanced ovarian cancer; BID, N = 10 IAP): 0 (0%)
Tumor response PR, patients n (%) (advanced ovarian cancer; BID, N = 10 IAP): 0 (0%)
Tumor response SD > 16w, patients n (%) (advanced ovarian cancer; BID, N = 10 IAP): 1 (10%)
Tumor response SD, patients n (%) (advanced ovarian cancer; BID, N = 10 IAP): 3 (30%)
mean of best change in tumor diameter from baseline, tumor growth (advanced ovarian cancer; QD population): 4%
CA125 response PR, patients n (%) (CA125; BID, N = 6 IAP): 0 (0%)
CA125 response SD, patients n (%) (CA125; BID, N = 6 IAP): 1 (17%)
CA125 response CR, patients n (%) (CA125; BID, N = 6 IAP, unconfirmed): 1 (17%) unconfirmed
CA125 response CR, patients n (%) (CA125; QD, N = 16 IAP): 0 (0%)
CA125 response PR, patients n (%) (CA125; QD, N = 16 IAP): 0 (0%)
CA125 response SD, patients n (%) (CA125; QD, N = 16 IAP): 3 (19%)
Dose modifications: Discontinuation ([6]; 600 mg BID (N = 9)): 0%
Dose modifications: Interruption ([6]; 600 mg BID (N = 9)): 50%
Dose modifications: Reduction ([6]; 600 mg BID (N = 9)): 40%
Adverse events Grade 1-4 ([6]; 600 mg BID (N = 10)): 70%
Adverse events Grade 3-4 ([6]; 600 mg BID (N = 10)): 20%
Adverse events Grade 5 ([6]; 600 mg BID (N = 10)): 0%
Treatment-related adverse events Grade 1 ([6]; 600 mg BID (N = 10)): 70%
Treatment-related adverse events Grade 2 ([6]; 600 mg BID (N = 10)): 60%
Treatment-related adverse events Grade 3 ([6]; 600 mg BID (N = 10)): 20%
Treatment-related adverse events Grade 4 ([6]; 600 mg BID (N = 10)): 0%
Treatment-related adverse events Grade 5 ([6]; 600 mg BID (N = 10)): 0%
Adverse events Grade 1-4 ([6]; 600 mg QD (N = 18)): 100%
Adverse events Grade 3-4 ([6]; 600 mg QD (N = 18)): 61%
Adverse events Grade 5 ([6]; 600 mg QD (N = 18)): 6%
Dose modifications: Discontinuation ([6]; 600 mg QD (N = 18)): 11%
Dose modifications: Interruption ([6]; 600 mg QD (N = 18)): 83%
Dose modifications: Reduction ([6]; 600 mg QD (N = 18)): 28%
Treatment-related adverse events Grade 1 ([6]; 600 mg QD (N = 18)): 94%
Treatment-related adverse events Grade 2 ([6]; 600 mg QD (N = 18)): 83%
Treatment-related adverse events Grade 3 ([6]; 600 mg QD (N = 18)): 33%
Treatment-related adverse events Grade 4 ([6]; 600 mg QD (N = 18)): 0%
Treatment-related adverse events Grade 5 ([6]; 600 mg QD (N = 18)): 0%
Anemia Grade 1-4 [7]: 21%
Anemia Grade 3-4 [7]: 7%
Neutropenia Grade 1-4 [7]: 2%
Neutropenia Grade 3-4 [7]: 0%
Thrombocytopenia Grade 1-4 [7]: 0%
Thrombocytopenia Grade 3-4 [7]: 0%
myelotoxicity among adverse events [8]: no myelotoxicity among adverse events found in more than 5% of patients
IC50 (P-gp): 1.39 µM
IC50 (P-gp; with verapamil (P-gp antagonist; concentration not stated)): 1.82 µM
IC50 [9]: 1.05 µM
IC50 [10]: 0.219 µM
IC50 [11]: 1.1 µM
PARP activity in tumor tissue (PARP activity; single dose 30 mg/kg, 12 hours post-dose): low levels of PARP activity were observed
PARP activity in tumor tissue (PARP activity; single dose 30 or 100 mg/kg, 1 and 6 hours post-dose): completely inhibited
PARP activity in tumor tissue (PARP activity; single dose 30 or 100 mg/kg, 24 hours post-dose): restored to control levels

NC(=O)c1cccc2cn(-c3ccc([C@@H]4CCCNC4)cc3)nc12 [niraparib]
Adverse events Grade 5 ([12]; 300 mg QD (N = 463), QUADRA trial): 2%
Dose modifications: Discontinuation ([12]; 300 mg QD (N = 463)): 21%
Dose modifications: Interruption ([12]; 300 mg QD (N = 463)): 62%
Dose modifications: Reduction ([12]; 300 mg QD (N = 463)): 47%
Treatment-related adverse events Grade 1 ([12]; 300 mg QD (N = 463)): 90%
Treatment-related adverse events Grade 2 ([12]; 300 mg QD (N = 463)): 56%
Treatment-related adverse events Grade 3 ([12]; 300 mg QD (N = 463)): 20%
Treatment-related adverse events Grade 4 ([12]; 300 mg QD (N = 463)): <1%
Anemia Grade 1-4 ([12]; QD (N = 463)): 51%
Anemia Grade 3-4 ([12]; QD (N = 463)): 27%
Neutropenia Grade 1-4 ([12]; QD (N = 463)): 20%
Neutropenia Grade 3-4 ([12]; QD (N = 463)): 13%
Thrombocytopenia Grade 1-4 ([12]; QD (N = 463)): 52%
Thrombocytopenia Grade 3-4 ([12]; QD (N = 463)): 28%
